Measured values taken from publication PMC7822874, “Chemoprotective antimalarials identified through quantitative high-throughput screening of Plasmodium blood and liver stage parasites” (Scientific Reports, 2021).

Test: in vitro
Details: human, hepg2-a16-cd81egfp cells
Further: reference of the scale not given here.

For `C=C1C(=O)O[C@@H]2C[C@@H](C)[C@@H]3C=CC(=O)[C@@]3(C)[C@@H](OC(=O)CC(=O)O[C@H]3[C@@H]4C(=C)C(=O)O[C@@H]4C[C@@H](C)[C@@H]4C=CC(=O)[C@]43C)[C@H]12` [MLS000728515], the viability at 3 µM was 16.4%.

`Cc1ccc(-c2cc(C(F)(F)F)n3ncc(C(=O)N4CCCCC4c4cccnc4)c3n2)cc1` (stereo not drawn) [MLS000729132] showed a viability at 3 µM (% viability) of 89.9%.

With `COc1ccc2c(c1)C=C([C@@H]1C[C@H]3CN(c4ccccc4)C(=O)[C@]34CCCN14)CO2` [MLS000734809] the viability at 3 µM (% viability) was 95.7%.

Work on `O=C(Nc1ccc(C2=NCCN2)cc1)c1ccc(C(=O)Nc2ccc(C3=NCCN3)cc2)c(Cl)c1` [MLS000737368] yielded a viability at 3 µM (% viability) of 90%.

`Cc1ccc(Cl)cc1NC(=O)c1cc2ccccc2cc1O` [MLS000738149] gave a viability at 3 µM (% viability) of 74%.

With `CC1(C)N=C(N)N=C(N)N1c1ccc(OCCCOc2ccccc2)c(Cl)c1` [MLS000738223] the viability at 3 µM (% viability) was 34.6%.

Compound `COc1ccc2ccc(O)c(CN3CC=C(c4ccccc4)CC3)c2c1` [MLS000760157] has a viability at 3 µM (% viability) of 97.2%.

Work on `CCCC(=O)Nc1sc2c(c1C(=O)Nc1ccccn1)CCCC2` [MLS000765104] yielded a viability at 3 µM (% viability) of 97.6%.

In the case of `CCC1(OC(=O)CN)C(=O)OCc2c1cc1n(c2=O)Cc2cc3ccccc3nc2-1` (stereo not drawn) [MLS000766263], the viability at 3 µM (% viability) is reported as 29.3%.

With `COc1ccc(OC)c(-n2c(S)nnc2-c2ccc(O)cc2O)c1` [MLS000766628] the viability at 3 µM (% viability) was 104%.

Work on `CC(C)Nc1ccc(Nc2ccnc3cc4ccccc4cc23)cc1` [MLS000766754] yielded a viability at 3 µM (% viability) of 83.9%.

For `COc1ccc(Nc2cc(C)nc(NCc3ccccc3)n2)cc1` [MLS000768693], the viability at 3 µM (% viability) was 83%.

Compound `CCN(CC)CCOC(=O)c1ccc(N/C=C(/C#N)c2nc(-c3ccc4c(c3)OCO4)cs2)cc1` [MLS000769346] has a viability at 3 µM (% viability) of 100%.

`O=C(Nc1nc(-c2ccccn2)cs1)c1cccc(-n2cnnn2)c1` [MLS000770597] showed a viability at 3 µM (% viability) of 63.7%.

Compound `Oc1c(C(Nc2nccs2)c2ccc(C(F)(F)F)cc2)ccc2cccnc12` (stereo not drawn) [MLS000774842] has a viability at 3 µM (% viability) of 43.8%.

Compound `O=C(Nc1ccc(S(=O)(=O)N2CCOCC2)cc1)c1cc(-c2cc(Cl)ccc2O)n[nH]1` [MLS000778989] has a viability at 3 µM (% viability) of 73.1%.

`COc1ccc(Cl)cc1NC(=O)c1cc(-c2cc(C)ccc2O)[nH]n1` [MLS000779126] showed a viability at 3 µM (% viability) of 108%.

Work on `CCC(=O)Nc1cc(=O)[nH]c2nc(-c3ccc(Cl)cc3)nn12` [MLS000779210] yielded a viability at 3 µM (% viability) of 92%.

With `Cc1ccc(-c2cc(C(=O)Nc3ccc(S(=O)(=O)N4CC(C)OC(C)C4)cc3)[nH]n2)c(O)c1` (stereo not drawn) [MLS000779230] the viability at 3 µM (% viability) was 89.2%.

With `Cc1ccc(-[n+]2c(-c3ccc(Cl)cc3)cn3c2CCC3)cc1` [MLS000780005] the viability at 3 µM (% viability) was 90.4%.

With `O=C(Nc1ccc(C(F)(F)F)cc1)N1CCN(c2ccnc3cc(Cl)ccc23)CC1` [MLS000830170] the viability at 3 µM (% viability) was 90.8%.

In the case of `CCOC(=O)C1CCN(C(=O)c2cc(C(C)(C)C)nn2Cc2ccccc2)CC1` [MLS000860456], the viability at 3 µM (% viability) is reported as 90.8%.

Compound `O=C(Nc1ccc(N2CCN(c3ncccc3C(F)(F)F)CC2)nc1)c1cccs1` [MLS000862045] has a viability at 3 µM (% viability) of 92%.

Work on `Oc1cc(/C=C/c2c(F)cccc2Cl)nc2ccccc12` [MLS000862522] yielded a viability at 3 µM (% viability) of 102%.

`COc1cc(O)c(C(CCN2CCCCC2)c2ccc(N(C)C)cc2)c(OC)c1` (stereo not drawn) [MLS000879496] showed a viability at 3 µM (% viability) of 92.4%.

`COc1cc(O)c(C(CCN2CCCC(C)C2)c2ccc3c(c2)OCO3)c(OC)c1` (stereo not drawn) [MLS000879506] showed a viability at 3 µM (% viability) of 97.8%.

`CCN1CCN(Cc2ccc(NC(=O)c3ccc(C)c(NC(=O)c4cc(-c5ccc(Br)cc5)[nH]n4)c3)cc2C(F)(F)F)CC1` [MLS000911560] gave a viability at 3 µM (% viability) of 99%.

`CCN1CCN(Cc2ccc(NC(=O)c3cc(NC(=O)c4cc(-c5ccc(OC)cc5)n[nH]4)cc(OC)c3)cc2C(F)(F)F)CC1` [MLS000911571] showed a viability at 3 µM (% viability) of 97%.

Compound `CCN1CCN(Cc2ccc(NC(=O)c3cc(NC(=O)c4cc5cccc(OC)c5o4)cc(OC)c3)cc2C(F)(F)F)CC1` [MLS000911573] has a viability at 3 µM (% viability) of 94.8%.

Compound `CCN1CCN(Cc2ccc(NC(=O)c3cc(NC(=O)c4cncc(-c5ccc(C#N)cc5)c4)cc(OC)c3)cc2C(F)(F)F)CC1` [MLS000911575] has a viability at 3 µM (% viability) of 99.9%.
